Test results published in US10206979B2, “Treatment agent for cognitive impairment induced by amyloid beta-protein, therapeutic agent for alzheimer's disease, and treatment method and pathological analysis method related to these” (NATIONAL UNIVERSITY CORPORATION OKAYAMA UNIVERSITY, priority 2013, dated 2019).
No end group written: not given here.

What was measured:
[1] = system: memory disorder induced by amyloid β protein oligomer; assay: novel object recognition test in mouse model of memory disorder by administration of the amyloid β protein oligomer; assay type: in vivo, ICR mice; conditions: for ability to remember (exploration time for novel object vs familiar object): 1 μM amyloid β protein oligomer + 10 μM peptide in artificial cerebrospinal fluid, 3.5 μl/side to lateral ventricles, test session 24 h after training, paired t-test
Description: Preparation of a mouse model of memory disorder by administration of the amyloid β protein oligomer, and evaluation of the ability of memory acquisition by a novel object recognition test were carried out according to an earlier paper (Balducci et al., Proc Natl Acad Sci USA 107, 2295-2300, 2010).
ICR mice (6 to 7 weeks old) were anesthetized with ketamine (100 mg/kg) and xylazine (40 mg/kg), and each mouse was fixed on a brain stereotaxic apparatus. After removal of the scalp, small holes were made on the skull on the lateral ventricles, and guide cannulae (23 gage) were bilaterally embedded at the positions of ±1.0 mm lateral and 0.65 mm posterior to the bregma. The guide cannulae were fixed with a dental resin. After a period of four to five days for recovery from the surgery, each mouse was allowed to move freely for 10 minutes in order to allow acclimatization to the environment in a test cage (39 cm×22 cm) (habituation). This was continued for 3 days. On the next day, an artificial cerebrospinal fluid (control), artificial cerebrospinal fluid in Which 1 μM amyloid β protein oligomer is dissolved, or artificial cerebrospinal fluid in which 1 μM amyloid β protein oligomer and 10 μM p3-Alcβ37 peptide or a partial peptide thereof are dissolved, was bilaterally administered (3.5 μl/side) to the lateral ventricles through the guide cannulae embedded in the head, using an injection cannulae (30 gage, 1.7 mm from the brain surface).
Two hours after the administration, two identical objects (glass vials each having a plastic cap [objects A]: 3-cm diameter×6.5-cm height) were placed in the test cage for which the habituation had been carried out, such that the objects were positioned about 20 cm distant from each other. In the test cage, each mouse was allowed to move freely for 10 minutes to allow learning of the object A (training session). On the next day, 24 hours after the learning, a test was carried out to investigate if the mouse remembered the object A, which was presented on the previous day (test session). More specifically, in the same test cage, the object A presented on the previous day (that is, a familiar object) and a novel object (a metal cube [object B]: 4 cm×4 cm×4 cm) were placed at the same positions as those used on the previous day, and the mouse was allowed to move freely for 10 minutes in the test cage. In normal mice, since they naturally show interest in novel objects, the time for exploring the novel object (object B) is longer than the time for exploring the familiar object (object A). […] The exploratory behavior for each object was recorded using a video camera, and the total exploration time for each object was calculated. The time spent for contacting or approach of the head to the object (including sniffing), and contacting of a forelimb or hindlimb with the object was included in the exploration time. The ability of memory acquisition of the mice in each group was represented using the discrimination index. The discrimination index was defined as follows: ([exploration time for novel object]−[exploration time for familiar object ])/([exploration time for novel object]+[exploration time for familiar object]). In cases where discrimination between the novel object and the familiar object is impossible, the discrimination index is 0, while in cases where the exploration time for the novel object is longer than the exploration time for the familiar object, the discrimination index is positive. […] Therefore, the calculation of the exploration time and the discrimination index was carried out based on the behavior observed during the first 5 minutes after the placement of the mouse in the test cage.
In terms of the reagents used, the composition of the artificial cerebrospinal fluid was as follows: 137 mM NaCl, 3 mM KCl, 1 mM MgCl2, 1.2 mM CaCl2, 2.5 mM glucose, and 2 mM sodium phosphate buffer (pH 7.4). […]

[2] = system: memory disorder induced by MK-801 (NMDA receptor-dependent memory disorder); assay: novel object recognition test in mouse model of memory disorder prepared by administration of NMDA receptor inhibitor MK-801; assay type: in vivo, ICR mice; conditions: 10 μM peptide to cerebral ventricle; (+)-MK-801 maleate 2 mg/kg intraperitoneally; paired t-test, P>0.05
Description: ICR mice (6 to 7 weeks old) were anesthetized with ketamine (100 mg/kg) and xylazine (40 mg/kg), and each mouse was fixed on a brain stereotaxic apparatus. After removal of the scalp, small holes were made on the skull on the lateral ventricles, and guide cannulae (23 gage) were bilaterally embedded at the positions of ±1.0 mm lateral and 0.65 mm posterior to the bregma. The guide cannulae were fixed with a dental resin. After a period of four to five days for recovery from the surgery, each mouse was allowed to move freely for 10 minutes in order to allow acclimatization to the environment in a test cage (39 cm×22 cm) (habituation). This was continued for 3 days. […]
Two hours after the administration, two identical objects (glass vials each having a plastic cap [objects A]: 3-cm diameter×6.5-cm height) were placed in the test cage for which the habituation had been carried out, such that the objects were positioned about 20 cm distant from each other. […] The exploratory behavior for each object was recorded using a video camera, and the total exploration time for each object was calculated. […]

Sequence	ability to remember (exploration time for novel object vs familiar object) [1]	discrimination index relative to the group in which the oligomer was administered ([1]; 1 μM oligomer + 10 μM peptide, lateral ventricles, Tukey test, P<0.01)	discrimination index relative to the group in which the artificial cerebrospinal fluid was administered ([1]; 1 μM oligomer + 10 μM peptide, lateral ventricles, Tukey test, P>0.05)	effect to ameliorate memory disorder (exploration time for novel object vs familiar object) [2]
HRGHQPPPEMA (a part of p3-Alc beta 37 (position 9-19)) [p3-Alcβ37[9-19], partial peptide corresponding to positions 9 to 19 of p3-Alcβ37 (11 amino acids)]	ability to remember showed remarkable recovery	–	–	–
VLSSQQFLHRG (a part of p3-Alc beta 37 (position 1-11)) [p3-Alcβ37[1-11], partial peptide corresponding to positions 1 to 11 of p3-Alcβ37]	ability to remember remained impaired	–	–	–
VLSSQQFLHRGHQPPPEMAGHSLASSHRNSMIPSAAT (listed as Homo sapiens) [p3-Alcβ37, peptide composed of 37 amino acids produced by cleavage of Alcadein-β by γ-secretase and α-secretase]	remarkable recovery of the ability to remember	significant increase in the discrimination index	No significant difference in the discrimination index	effect to ameliorate memory disorder was not found
VLSSQQFLHRGHOPPPEMA (VLSSQQFLHRGHQPPPEMA; not fully specified) [p3-Alcβ37 [1-19], partial peptide corresponding to positions 1 to 19 of p3-Alcβ37]	remarkable recovery of the ability to remember	–	–	–
GHSLASSHRNSMIPSAAT (a part of p3-Alc beta 37 (position 20-37)) [p3-Alcβ37 [20-37], partial peptide corresponding to positions 20 to 37 of p3-Alcβ37]	no recovery of the ability to remember	–	–	–
